Measured values published in ChEMBL document CHEMBL3616449, “Synthesis, in vitro and in silico antimalarial activity of 7-chloroquinoline and 4H-chromene conjugates” (Bioorg Med Chem Lett, 2015).

Legend:
[1] = Selectivity index, ratio of CC50 for african green monkey Vero cells to IC50 for chloroquine-sensitive Plasmodium falciparum 3D7; format: functional
[2] = Cytotoxicity against african green monkey Vero cells after 72 hrs by MTT assay; format: cell-based; conditions: chlorocebus sabaeus
Plasmodium falciparum [3] = test: Antimalarial activity against chloroquine-sensitive Plasmodium falciparum 3D7 incubated for 72 hrs by SYBR Green 1 assay; format: functional, organism-based; conditions: 3D7, 72 h
[4] = Selectivity index, ratio of CC50 for african green monkey Vero cells to IC50 for chloroquine-resistant Plasmodium falciparum K1; format: functional
Plasmodium falciparum [5] = test: Antimalarial activity against chloroquine-resistant Plasmodium falciparum K1 incubated for 72 hrs by SYBR Green 1 assay; format: functional, organism-based; conditions: K1, 72 h

Structure (SMILES)	Ratio CC50/IC50 [1]	CC50 at 72 h [2]	IC50 (Plasmodium falciparum [3])	Ratio CC50/IC50 [4]	IC50 (Plasmodium falciparum [5])
CNC1=C([N+](=O)[O-])C(c2ccc(N3CCN(c4ccnc5cc(Cl)ccc45)CC3)cc2)c2cc(OC)ccc2O1 (stereo not drawn)	33	81.9 µM	2.48 µM	19.3	4.25 µM
CNC1=C([N+](=O)[O-])C(c2ccc(N3CCCN(c4ccnc5cc(Cl)ccc45)CC3)cc2)c2ccccc2O1 (stereo not drawn)	<18.3	91.4 µM	> 5 µM	–	> 5 µM
CNC1=C([N+](=O)[O-])C(c2ccc(N3CCN(c4ccnc5cc(Cl)ccc45)CC3)cc2)c2cccc(OC)c2O1 (stereo not drawn)	8.8	21.8 µM	2.47 µM	9.1	2.4 µM
O=[N+]([O-])C1=C(NCc2ccccc2)Oc2ccccc2C1c1ccc(N2CCN(c3ccnc4cc(Cl)ccc34)CC2)cc1 (stereo not drawn)	<13.3	66.5 µM	> 5 µM	<13.3	> 5 µM
CNC1=C([N+](=O)[O-])C(c2ccc(N3CCN(c4ccnc5cc(Cl)ccc45)CC3)cc2)c2cc(Br)ccc2O1 (stereo not drawn)	47.1	88.6 µM	1.88 µM	50.6	1.75 µM
CNC1=C([N+](=O)[O-])C(c2ccc(N3CCN(c4ccnc5cc(Cl)ccc45)CC3)cc2)c2cc(Cl)ccc2O1 (stereo not drawn)	54.3	74.5 µM	1.37 µM	24.9	2.99 µM
CNC1=C([N+](=O)[O-])C(c2ccc(N3CCN(c4ccnc5cc(Cl)ccc45)CC3)cc2)c2c(C=O)c(C)cc(Cl)c2O1 (stereo not drawn)	35.8	84 µM	2.34 µM	96.5	0.87 µM
Clc1ccc2c(N3CCCN(c4ccccc4)CC3)ccnc2c1	37.1	148 µM	3.98 µM	33.1	4.47 µM
CNC1=C([N+](=O)[O-])C(c2ccc(N3CCN(c4ccnc5cc(Cl)ccc45)CC3)cc2)c2cc([N+](=O)[O-])ccc2O1 (stereo not drawn)	51.4	31.9 µM	0.62 µM	17.9	1.78 µM
CCCCNC1=C([N+](=O)[O-])C(c2ccc(N3CCN(c4ccnc5cc(Cl)ccc45)CC3)cc2)c2ccccc2O1 (stereo not drawn)	34.6	107 µM	3.09 µM	29.9	3.57 µM
Clc1ccc2c(N3CCN(c4ccccc4)CC3)ccnc2c1	66.3	179 µM	2.69 µM	71.7	2.49 µM
CNC1=C([N+](=O)[O-])C(c2ccc(N3CCCN(c4ccnc5cc(Cl)ccc45)CC3)cc2)c2cc(Br)ccc2O1 (stereo not drawn)	>89.3	> 200 µM	2.24 µM	>157.5	1.27 µM
CNC1=C([N+](=O)[O-])C(c2ccc(N3CCCN(c4ccnc5cc(Cl)ccc45)CC3)cc2)c2cc(Cl)ccc2O1 (stereo not drawn)	265.4	77 µM	0.29 µM	155.2	0.496 µM
CNC1=C([N+](=O)[O-])C(c2ccc(N3CCN(c4ccnc5cc(Cl)ccc45)CC3)cc2)c2ccccc2O1 (stereo not drawn)	>180.2	> 200 µM	1.11 µM	>59.2	3.38 µM
CNC1=C([N+](=O)[O-])C(c2ccc(N3CCN(c4ccnc5cc(Cl)ccc45)CC3)cc2)c2cc(Br)cc(Br)c2O1 (stereo not drawn)	–	> 200 µM	> 5 µM	>68.2	2.93 µM
CNC1=C([N+](=O)[O-])C(c2ccc(N3CCN(c4ccnc5cc(Cl)ccc45)CC3)cc2)c2cc(Cl)cc(Cl)c2O1 (stereo not drawn)	24.9	97.8 µM	3.92 µM	67.4	1.45 µM
CCOc1cccc2c1OC(NC)=C([N+](=O)[O-])C2c1ccc(N2CCN(c3ccnc4cc(Cl)ccc34)CC2)cc1 (stereo not drawn)	13.7	40.4 µM	2.93 µM	13.6	2.95 µM
O=[N+]([O-])C1=C(NCCc2ccccc2)Oc2ccccc2C1c1ccc(N2CCN(c3ccnc4cc(Cl)ccc34)CC2)cc1 (stereo not drawn)	39.6	131 µM	3.31 µM	75.5	1.74 µM
